How the values were obtained:
Dipeptidyl peptidase 8 = Dipeptidyl peptidase 8 (Homo sapiens, UniProt Q6V1X1); experiment: Inhibition of human DPP8 expressed in baculovirus by continuous fluorescent assay
Dipeptidyl peptidase 9 = Dipeptidyl peptidase 9 (Homo sapiens, UniProt Q86TI2); experiment: Inhibition of human DPP9 expressed in baculovirus by continuous fluorescent assay
[1] = Plasma clearance in rat at 1 mg/kg, iv or 2 mg/kg, po; type: ADME, organism-based
[2] = Half life in rat at 1 mg/kg, iv or 2 mg/kg, po; type: ADME, organism-based; conditions: in vivo
[3] = Inhibition of rabbit L-type calcium channel; design: species or system Oryctolagus cuniculus
Cytochrome P450 2D6 = Cytochrome P450 2D6 (Homo sapiens, UniProt P10635); experiment: Inhibition of CYP2D6; type: ADME
[4] = Oral bioavailability in rat at 2 mg/kg, po; type: ADME, organism-based; conditions: in vivo
Dipeptidyl peptidase 2 = Dipeptidyl peptidase 2 (Homo sapiens, UniProt Q9UHL4); experiment: Inhibition of human recombinant QPP transfected in insect SF9 cells
[5] = Fraction unbound in mouse plasma; type: ADME, cell-free
[6] = Half life in mouse at 1 mg/kg, iv or 2 mg/kg, po; type: ADME, organism-based; conditions: in vivo
Mus musculus [7] = experiment: Inhibition of DPP4 in C57BL/6N lean mouse at 1 mg/kg, po administered as single dose 60 mins before dextrose challenge by oral glucose tolerance test; type: functional
[8] = Oral bioavailability in rhesus monkey at 2 mg/kg, po; type: ADME, organism-based, Macaca mulatta; conditions: in vivo
Mus musculus [9] = experiment: Reduction in glucose excursion in C57BL/6N lean mouse at 3 mg/kg, po administered as single dose 60 mins before dextrose challenge by oral glucose tolerance test; type: functional; design: scale not given: the % may be the effect or the level left
Dipeptidyl peptidase 4 = Dipeptidyl peptidase 4 (Mus musculus, UniProt P28843); experiment: Inhibition of C57BL/6N mouse DPP4
[10] = Half life in dog at 1 mg/kg, iv or 2 mg/kg, po; type: ADME, organism-based, Canis lupus familiaris; conditions: in vivo
Mus musculus [11] = experiment: Reduction in glucose excursion in C57BL/6N lean mouse at 0.1 mg/kg, po administered as single dose 60 mins before dextrose challenge by oral glucose tolerance test; type: functional; design: scale not given: the % may be the effect or the level left
[12] = Oral bioavailability in dog at 2 mg/kg, po; type: ADME, organism-based, Canis lupus familiaris; conditions: in vivo
[13] = Oral bioavailability in mouse at 2 mg/kg, po; type: ADME, organism-based; conditions: in vivo
[14] = Plasma clearance in dog at 1 mg/kg, iv or 2 mg/kg, po; type: ADME, organism-based, Canis lupus familiaris
[15] = Plasma concentration in C57BL/6N lean mouse at 1 mg/kg, po administered as single dose 60 mins before dextrose challenge by oral glucose tolerance test; type: ADME, organism-based; design: dose 1 mg/kg, route oral
[16] = Plasma clearance in mouse at 1 mg/kg, iv or 2 mg/kg, po; type: ADME, organism-based
[17] = Plasma clearance in rhesus monkey at 1 mg/kg, iv or 2 mg/kg, po; type: ADME, organism-based, Macaca mulatta
[18] = Half life in rhesus monkey at 1 mg/kg, iv or 2 mg/kg, po; type: ADME, organism-based, Macaca mulatta; conditions: in vivo
[19] = biological target: Voltage-gated inwardly rectifying potassium channel KCNH2 (Homo sapiens, UniProt Q12809); experiment: Inhibition of human ERG
[20] = Metabolic stability in human hepatocytes assessed as compound remaining after 60 mins; type: ADME, cell-based, Hepatocyte; conditions: read-out: Stability
[21] = Metabolic stability in dog hepatocytes assessed as compound remaining after 60 mins; type: ADME, cell-based, Canis lupus familiaris, Hepatocyte; conditions: read-out: Stability
[22] = Metabolic stability in human liver microsomes assessed as compound remaining after 60 mins; type: ADME, Microsome; conditions: read-out: Stability
[23] = Metabolic stability in rhesus monkey hepatocytes assessed as compound remaining after 60 mins; type: ADME, cell-based, Macaca mulatta, Hepatocyte; conditions: read-out: Stability
[24] = Metabolic stability in rat hepatocytes assessed as compound remaining after 60 mins; type: ADME, cell-based, Hepatocyte; conditions: read-out: Stability
[25] = Metabolic stability in rhesus monkey liver microsomes assessed as compound remaining after 60 mins; type: ADME, Macaca mulatta, Microsome; conditions: read-out: Stability
[26] = Metabolic stability in rat liver microsomes assessed as compound remaining after 60 mins; type: ADME, Microsome; conditions: read-out: Stability
[27] = Metabolic stability in dog liver microsomes assessed as compound remaining after 60 mins; type: ADME, Canis lupus familiaris, Microsome; conditions: read-out: Stability

Dipeptidyl peptidase 9, sequence (Q86TI2 whole entry): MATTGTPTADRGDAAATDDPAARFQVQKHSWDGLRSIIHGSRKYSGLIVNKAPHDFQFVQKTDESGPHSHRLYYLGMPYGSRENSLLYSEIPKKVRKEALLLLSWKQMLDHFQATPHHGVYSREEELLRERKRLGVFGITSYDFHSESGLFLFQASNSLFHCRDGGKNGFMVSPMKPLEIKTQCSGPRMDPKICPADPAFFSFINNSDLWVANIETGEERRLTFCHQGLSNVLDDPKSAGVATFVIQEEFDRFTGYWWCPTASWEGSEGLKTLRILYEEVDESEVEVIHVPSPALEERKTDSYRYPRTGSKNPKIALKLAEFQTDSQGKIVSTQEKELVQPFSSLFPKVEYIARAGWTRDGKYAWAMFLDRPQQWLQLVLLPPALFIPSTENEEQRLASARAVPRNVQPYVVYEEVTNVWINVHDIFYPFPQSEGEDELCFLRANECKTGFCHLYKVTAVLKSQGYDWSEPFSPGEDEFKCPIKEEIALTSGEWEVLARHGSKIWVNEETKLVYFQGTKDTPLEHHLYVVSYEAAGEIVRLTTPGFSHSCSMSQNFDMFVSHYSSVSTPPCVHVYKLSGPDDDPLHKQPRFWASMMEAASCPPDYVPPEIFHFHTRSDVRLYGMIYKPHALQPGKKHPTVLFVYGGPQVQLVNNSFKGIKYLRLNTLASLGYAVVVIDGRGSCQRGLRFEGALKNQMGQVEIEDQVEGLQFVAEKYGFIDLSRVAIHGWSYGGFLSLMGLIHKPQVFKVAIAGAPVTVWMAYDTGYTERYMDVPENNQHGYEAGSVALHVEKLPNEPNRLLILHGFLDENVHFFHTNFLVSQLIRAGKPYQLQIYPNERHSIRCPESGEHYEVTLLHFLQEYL
Voltage-gated inwardly rectifying potassium channel KCNH2, sequence (Q12809 whole entry): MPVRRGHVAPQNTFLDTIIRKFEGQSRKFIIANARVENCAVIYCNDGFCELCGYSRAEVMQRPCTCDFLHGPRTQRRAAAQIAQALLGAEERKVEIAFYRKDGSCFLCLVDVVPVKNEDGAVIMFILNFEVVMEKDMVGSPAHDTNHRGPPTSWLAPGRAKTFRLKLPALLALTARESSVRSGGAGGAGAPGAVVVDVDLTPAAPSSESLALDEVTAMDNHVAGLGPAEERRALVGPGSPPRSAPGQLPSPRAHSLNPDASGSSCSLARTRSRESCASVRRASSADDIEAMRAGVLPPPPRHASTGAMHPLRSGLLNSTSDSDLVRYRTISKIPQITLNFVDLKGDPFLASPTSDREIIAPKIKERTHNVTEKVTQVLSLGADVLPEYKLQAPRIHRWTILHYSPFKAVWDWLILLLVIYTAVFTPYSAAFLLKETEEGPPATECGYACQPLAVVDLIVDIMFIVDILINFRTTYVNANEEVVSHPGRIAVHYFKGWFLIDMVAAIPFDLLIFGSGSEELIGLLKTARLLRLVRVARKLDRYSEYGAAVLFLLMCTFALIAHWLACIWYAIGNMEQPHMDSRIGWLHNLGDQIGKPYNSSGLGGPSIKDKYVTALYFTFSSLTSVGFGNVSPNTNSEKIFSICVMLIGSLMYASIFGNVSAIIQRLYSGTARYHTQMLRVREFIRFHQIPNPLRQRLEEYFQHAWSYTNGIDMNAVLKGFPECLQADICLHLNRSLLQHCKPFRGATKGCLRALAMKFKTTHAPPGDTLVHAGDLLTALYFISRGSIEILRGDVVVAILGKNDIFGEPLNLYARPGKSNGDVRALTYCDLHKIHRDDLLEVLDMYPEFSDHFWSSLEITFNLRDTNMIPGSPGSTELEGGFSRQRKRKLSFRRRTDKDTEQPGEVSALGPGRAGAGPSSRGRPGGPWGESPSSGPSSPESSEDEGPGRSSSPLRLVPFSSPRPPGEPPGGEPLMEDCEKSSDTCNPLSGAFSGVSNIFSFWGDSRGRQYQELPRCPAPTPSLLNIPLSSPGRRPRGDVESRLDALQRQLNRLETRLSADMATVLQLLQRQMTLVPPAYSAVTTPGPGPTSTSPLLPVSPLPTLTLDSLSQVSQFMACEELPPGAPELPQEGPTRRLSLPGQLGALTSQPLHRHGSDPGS
Dipeptidyl peptidase 8, sequence (Q6V1X1 whole entry): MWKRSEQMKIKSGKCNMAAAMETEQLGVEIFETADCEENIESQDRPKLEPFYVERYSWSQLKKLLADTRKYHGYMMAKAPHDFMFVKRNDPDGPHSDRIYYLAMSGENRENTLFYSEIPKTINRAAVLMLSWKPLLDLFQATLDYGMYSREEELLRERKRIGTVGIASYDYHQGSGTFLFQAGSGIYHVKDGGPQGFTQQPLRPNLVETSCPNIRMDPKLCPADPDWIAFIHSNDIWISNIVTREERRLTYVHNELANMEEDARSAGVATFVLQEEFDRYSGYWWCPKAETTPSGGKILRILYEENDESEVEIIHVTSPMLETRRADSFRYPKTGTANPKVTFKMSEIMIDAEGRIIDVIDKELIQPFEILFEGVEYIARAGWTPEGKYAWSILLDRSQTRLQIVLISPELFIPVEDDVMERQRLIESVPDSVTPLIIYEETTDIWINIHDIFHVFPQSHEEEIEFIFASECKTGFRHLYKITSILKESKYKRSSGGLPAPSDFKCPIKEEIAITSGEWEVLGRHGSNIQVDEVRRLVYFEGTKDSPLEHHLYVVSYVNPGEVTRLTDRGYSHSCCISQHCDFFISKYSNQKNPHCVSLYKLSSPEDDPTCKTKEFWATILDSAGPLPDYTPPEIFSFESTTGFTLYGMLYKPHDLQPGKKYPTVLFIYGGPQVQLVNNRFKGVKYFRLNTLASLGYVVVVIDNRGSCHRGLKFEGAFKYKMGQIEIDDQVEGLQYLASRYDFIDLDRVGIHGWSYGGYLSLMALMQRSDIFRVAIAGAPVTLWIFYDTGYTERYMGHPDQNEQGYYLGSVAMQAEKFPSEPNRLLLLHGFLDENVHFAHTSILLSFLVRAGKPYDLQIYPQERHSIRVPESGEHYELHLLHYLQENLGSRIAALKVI
Cytochrome P450 2D6, sequence (P10635 whole entry): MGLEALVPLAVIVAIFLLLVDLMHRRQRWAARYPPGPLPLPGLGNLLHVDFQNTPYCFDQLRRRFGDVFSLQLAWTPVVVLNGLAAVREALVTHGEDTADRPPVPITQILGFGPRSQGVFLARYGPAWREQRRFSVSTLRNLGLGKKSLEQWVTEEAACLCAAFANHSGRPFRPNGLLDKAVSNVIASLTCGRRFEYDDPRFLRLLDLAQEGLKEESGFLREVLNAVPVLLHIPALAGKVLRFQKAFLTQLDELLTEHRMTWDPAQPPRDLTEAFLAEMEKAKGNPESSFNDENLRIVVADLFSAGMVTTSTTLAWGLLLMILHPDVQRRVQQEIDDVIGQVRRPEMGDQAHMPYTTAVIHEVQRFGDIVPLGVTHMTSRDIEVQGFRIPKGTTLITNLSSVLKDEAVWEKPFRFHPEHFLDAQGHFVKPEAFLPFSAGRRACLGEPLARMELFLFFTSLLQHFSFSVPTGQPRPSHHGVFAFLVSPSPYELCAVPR
Dipeptidyl peptidase 4, sequence (P28843 whole entry): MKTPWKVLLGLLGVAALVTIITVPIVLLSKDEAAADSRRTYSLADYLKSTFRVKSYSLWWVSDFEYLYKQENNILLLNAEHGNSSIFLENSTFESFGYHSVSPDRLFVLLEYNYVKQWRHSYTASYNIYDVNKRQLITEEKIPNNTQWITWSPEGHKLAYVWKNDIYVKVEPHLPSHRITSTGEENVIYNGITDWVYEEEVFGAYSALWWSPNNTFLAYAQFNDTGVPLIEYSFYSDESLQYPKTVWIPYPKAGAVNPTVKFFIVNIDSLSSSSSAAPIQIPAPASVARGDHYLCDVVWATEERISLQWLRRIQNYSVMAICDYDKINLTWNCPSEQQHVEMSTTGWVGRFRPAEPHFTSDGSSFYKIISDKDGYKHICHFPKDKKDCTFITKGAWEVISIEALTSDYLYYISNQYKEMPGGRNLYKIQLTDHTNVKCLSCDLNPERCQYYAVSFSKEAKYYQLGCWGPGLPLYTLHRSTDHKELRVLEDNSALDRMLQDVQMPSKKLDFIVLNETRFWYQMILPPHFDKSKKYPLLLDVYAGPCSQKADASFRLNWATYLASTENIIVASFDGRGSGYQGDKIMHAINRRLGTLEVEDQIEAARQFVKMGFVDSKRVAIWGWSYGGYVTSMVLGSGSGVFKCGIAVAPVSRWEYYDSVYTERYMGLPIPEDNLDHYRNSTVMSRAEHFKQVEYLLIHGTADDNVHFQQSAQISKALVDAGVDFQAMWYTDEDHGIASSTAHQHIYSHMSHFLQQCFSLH

| SMILES | IC50 (Dipeptidyl peptidase 8) | IC50 (Dipeptidyl peptidase 9) | clearance [1] | half-life [2] | bioavailability [4] | also measured |
| --- | --- | --- | --- | --- | --- | --- |
| N[C@H]1Cn2c(nc3c(F)cccc32)C[C@@H]1c1cc(F)c(F)cc1F | > 100 µM | > 100 µM |  |  |  |  |
| N[C@H]1Cn2c(nc3cnc(C(F)(F)F)cc32)C[C@@H]1c1cc(F)c(F)cc1F.O=C(O)C(F)(F)F.O=C(O)C(F)(F)F |  |  | 1.4 mL/min/kg | 8.7 h | 110% | IC50 [3]: 96 µM; IC50 (Cytochrome P450 2D6): 11 µM |
| N[C@H]1Cn2c(nc3ccncc32)C[C@@H]1c1cc(F)c(F)cc1F |  |  |  |  |  | IC50 (Dipeptidyl peptidase 2): > 100 µM |
| CS(=O)(=O)c1ccc2nc3n(c2c1)C[C@H](N)[C@@H](c1cc(F)c(F)cc1F)C3 | > 100 µM | > 100 µM |  |  |  | IC50 (Dipeptidyl peptidase 2): > 100 µM |
| N[C@H]1Cn2c(nc3ccccc32)C[C@@H]1c1cc(F)c(F)cc1F | > 100 µM | > 100 µM |  |  |  |  |
| COc1ccc2c(c1)nc1n2C[C@H](N)[C@@H](c2cc(F)c(F)cc2F)C1 | > 100 µM |  |  |  |  |  |
| N[C@H]1Cn2c(nc3ccc(C(F)(F)F)cc32)C[C@@H]1c1cc(F)c(F)cc1F | > 100 µM |  |  |  |  |  |
| Cl.N[C@H]1Cn2c(nc3cnccc32)C[C@@H]1c1cc(F)c(F)cc1F | > 100 µM | > 100 µM |  |  |  | IC50 (Dipeptidyl peptidase 2): > 100 µM; fraction unbound [5]: 0.55; half-life [6]: 1.9 h; inhibition in vivo at 1 mg/kg (Mus musculus [7]): 88%; bioavailability [8]: 11%; Activity (Mus musculus [9]): 49%; IC50 (Dipeptidyl peptidase 4): 0.045 µM; half-life [10]: 13 h; Activity (Mus musculus [11]): 27%; bioavailability [12]: 120%; bioavailability [13]: 73%; IC50 [3]: > 100 µM; IC50 (Cytochrome P450 2D6): 13 µM; clearance [14]: 2.7 mL/min/kg; concentration at 1 h [15]: 691 nM; clearance [16]: 36 mL/min/kg; clearance [17]: 35 mL/min/kg; half-life [18]: 1 h |
| N[C@H]1Cn2c(nc3cc(F)ccc32)C[C@@H]1c1cc(F)c(F)cc1F | > 100 µM |  |  |  |  |  |
| N[C@H]1Cn2c(nc3cc(C(F)(F)F)ccc32)C[C@@H]1c1cc(F)c(F)cc1F.O=C(O)C(F)(F)F | > 100 µM | > 100 µM | 4.8 mL/min/kg | 7.6 h | 55% |  |
| CC(=O)Nc1ccc2c(c1)nc1n2C[C@H](N)[C@@H](c2cc(F)c(F)cc2F)C1 |  | > 100 µM |  |  |  |  |
| N[C@H]1Cn2c(nc3c(F)cc(F)cc32)C[C@@H]1c1cc(F)c(F)cc1F | > 100 µM |  |  |  |  |  |
| N[C@H]1Cn2c(nc3cnc(F)cc32)C[C@@H]1c1cc(F)c(F)cc1F.O=C(O)C(F)(F)F.O=C(O)C(F)(F)F | > 100 µM |  | 0.5 mL/min/kg | 17 h | 87% | IC50 [19]: 81 µM; IC50 [3]: 1.5 µM; IC50 (Cytochrome P450 2D6): 12 µM |
| CS(=O)(=O)c1ccc2c(c1)nc1n2C[C@H](N)[C@@H](c2cc(F)c(F)cc2F)C1.O=C(O)C(F)(F)F | > 100 µM | > 100 µM | 2.2 mL/min/kg | 3.4 h | 63% | IC50 [3]: > 100 µM; IC50 (Cytochrome P450 2D6): 1.5 µM |
| CCS(=O)(=O)c1ccc2c(c1)nc1n2C[C@H](N)[C@@H](c2cc(F)c(F)cc2F)C1 | > 100 µM | > 100 µM |  |  |  | IC50 (Dipeptidyl peptidase 2): > 100 µM |
| N[C@H]1Cn2c(nc3ccc(F)cc32)C[C@@H]1c1cc(F)c(F)cc1F.O=C(O)C(F)(F)F | > 100 µM |  | 25 mL/min/kg | 1.4 h | 37% |  |
| CN(C)C(=O)c1ccc2c(c1)nc1n2C[C@H](N)[C@@H](c2cc(F)c(F)cc2F)C1 | > 100 µM | > 100 µM |  |  |  |  |
| N[C@H]1Cn2c(nc3cccnc32)C[C@@H]1c1cc(F)c(F)cc1F | > 100 µM | > 100 µM |  |  |  |  |
| CS(=O)(=O)Nc1ccc2c(c1)nc1n2C[C@H](N)[C@@H](c2cc(F)c(F)cc2F)C1 | > 100 µM |  |  |  |  | IC50 [19]: 2.5 µM |
| N[C@H]1Cn2c(nc3cnccc32)C[C@@H]1c1cc(F)c(F)cc1F.O=C(O)C(F)(F)F.O=C(O)C(F)(F)F | > 100 µM | > 100 µM | 8.7 mL/min/kg | 2.6 h | 140% | remaining at 1 h [20]: 99%; IC50 (Dipeptidyl peptidase 2; sf9): > 100 µM; remaining at 1 h [21]: 99%; remaining at 1 h [22]: 97%; remaining at 1 h [23]: 35%; remaining at 1 h [24]: 94%; remaining at 1 h [25]: 69%; remaining at 1 h [26]: 83%; remaining at 1 h [27]: 92%; IC50 (Cytochrome P450 2D6): 13 µM |
| N[C@H]1Cn2c(nc3ncccc32)C[C@@H]1c1cc(F)c(F)cc1F.O=C(O)C(F)(F)F.O=C(O)C(F)(F)F | > 100 µM | > 100 µM | 3.9 mL/min/kg | 3.8 h | 96% | IC50 [19]: 90 µM; IC50 [3]: > 100 µM; IC50 (Cytochrome P450 2D6): 5.2 µM |
| N[C@H]1Cn2c(nc3c(F)c(F)c(F)cc32)C[C@@H]1c1cc(F)c(F)cc1F | > 100 µM |  |  |  |  |  |
| Cc1ccc2c(c1)nc1n2C[C@H](N)[C@@H](c2cc(F)c(F)cc2F)C1 | > 100 µM | > 100 µM |  |  |  |  |
| N[C@H]1Cn2c(nc3ccc(OC(F)(F)F)cc32)C[C@@H]1c1cc(F)c(F)cc1F |  | > 100 µM |  |  |  |  |
| N[C@H]1Cn2c(nc3cc(C(=O)O)ccc32)C[C@@H]1c1cc(F)c(F)cc1F.O=C(O)C(F)(F)F | > 100 µM | > 100 µM | 61 mL/min/kg | 0.4 h | 24% | IC50 (Dipeptidyl peptidase 2): > 100 µM |

Reference: ChEMBL document CHEMBL1153045, “Aminopiperidine-fused imidazoles as dipeptidyl peptidase-IV inhibitors” (Bioorg Med Chem Lett, 2009)
